Source: article PMC4266362 (Journal of Medicinal Chemistry, 2014)

Key:
glucagon receptor (GR) = glucagon receptor (GR) (Homo sapiens, UniProt P47871); assay: duplexed calcium mobilization assay, glucagon receptor; type: cell-based; settings: EC20 of glucagon
[1] = molecular target: melanocortin 4 receptor (MC4R) (Homo sapiens, UniProt P32245); assay: counter-screen against melanocortin 4 receptor; type: cell-based
human GLP-1R = human GLP-1R (Homo sapiens, UniProt P43220); assay: calcium mobilization PAM assay in human GLP-1R 9-3-H cells; type: cell-based
primary mouse islets = assay: glucose-stimulated insulin secretion, static islet incubation; type: cell-based
[2] = in vivo rat pharmacokinetics; settings: male, Sprague-Dawley, plasma
[3] = in vivo rat brain distribution; settings: Sprague-Dawley, intraperitoneal, 10 mg/kg
rats = assay: spontaneous locomotor activity; type: in vivo; settings: rat, 10–30 mg/kg i.p.
[4] = system: 68 GPCRs, ion channels, and transporters; assay: Eurofin radioligand binding panel; settings: 10 μM, 68 targets
[5] = liver microsome predicted hepatic clearance, rat; type: in vitro ADME; settings: well-stirred model

Sequence of glucagon receptor (GR) (P47871 26-477, species assumed): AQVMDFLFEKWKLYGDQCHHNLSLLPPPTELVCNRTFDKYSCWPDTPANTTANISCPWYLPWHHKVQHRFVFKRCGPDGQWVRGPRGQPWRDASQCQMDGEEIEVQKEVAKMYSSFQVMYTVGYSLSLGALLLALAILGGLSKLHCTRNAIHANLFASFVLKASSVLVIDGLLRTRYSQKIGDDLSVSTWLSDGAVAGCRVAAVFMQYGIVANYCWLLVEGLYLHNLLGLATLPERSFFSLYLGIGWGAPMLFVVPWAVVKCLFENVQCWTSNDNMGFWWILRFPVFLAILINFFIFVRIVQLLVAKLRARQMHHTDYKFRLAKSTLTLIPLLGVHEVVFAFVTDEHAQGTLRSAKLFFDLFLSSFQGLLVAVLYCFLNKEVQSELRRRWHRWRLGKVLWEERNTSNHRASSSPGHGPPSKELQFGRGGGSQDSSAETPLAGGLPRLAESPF
Sequence of human GLP-1R (P43220 24-463): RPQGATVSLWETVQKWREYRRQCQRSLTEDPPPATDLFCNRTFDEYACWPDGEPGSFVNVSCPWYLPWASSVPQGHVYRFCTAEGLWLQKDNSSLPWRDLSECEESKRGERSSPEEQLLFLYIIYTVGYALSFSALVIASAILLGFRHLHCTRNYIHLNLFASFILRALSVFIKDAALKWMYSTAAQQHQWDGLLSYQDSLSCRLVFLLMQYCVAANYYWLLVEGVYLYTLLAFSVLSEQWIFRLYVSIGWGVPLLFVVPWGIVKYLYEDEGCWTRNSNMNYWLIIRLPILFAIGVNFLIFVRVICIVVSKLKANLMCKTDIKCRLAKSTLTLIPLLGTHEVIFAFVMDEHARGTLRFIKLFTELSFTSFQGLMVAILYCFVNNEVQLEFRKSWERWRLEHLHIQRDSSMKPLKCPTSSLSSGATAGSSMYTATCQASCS
Sequence of melanocortin 4 receptor (MC4R) (P32245 whole entry, species assumed): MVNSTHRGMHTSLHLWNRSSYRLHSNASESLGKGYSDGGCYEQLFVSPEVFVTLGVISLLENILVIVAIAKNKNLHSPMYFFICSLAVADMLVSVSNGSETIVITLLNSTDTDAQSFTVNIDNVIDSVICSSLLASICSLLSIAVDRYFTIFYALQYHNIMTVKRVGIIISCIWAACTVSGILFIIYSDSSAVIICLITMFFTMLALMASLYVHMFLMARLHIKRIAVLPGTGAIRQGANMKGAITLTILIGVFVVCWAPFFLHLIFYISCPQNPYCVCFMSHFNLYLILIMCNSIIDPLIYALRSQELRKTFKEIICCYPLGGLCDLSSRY

| SMILES | activity at GR (glucagon receptor (GR)) | activity at MC4R [1] | GLP-1R PAM activity / mode (pure PAM or ago-PAM) (human GLP-1R; calcium mobilization) | effect on insulin secretion (primary mouse islets; 30 μM, in presence of 10 nM 1, low (5.6 mM) and high (11 mM) glucose, 60 min) | half-life ([2]; intravenous, 1 mg/kg) | Tmax [3] | effect on spontaneous locomotor activity (rats) | highest inhibition in radioligand binding panel [4] | calcium response in the absence of GLP-1 (human GLP-1R; compound alone) | potentiation of glucose-stimulated insulin secretion (primary mouse islets; primary mouse islets, in the presence of 2) | rat CLHEP [5] | clearance [2] |
| --- | --- | --- | --- | --- | --- | --- | --- | --- | --- | --- | --- | --- |
| CCN1CCCC1CNC(=O)c1cn(C2CCCC2)c(=O)c2c1c1ccccc1n2C (stereo not shown) [compound 8] | inactive | inactive | – | – | – | – | – | – | – | – | – | – |
| CC(C)N1CCC[C@H]1CNC(=O)c1cn(C2CCCC2)c(=O)c2c1c1ccccc1n2C [(S)-9b, (S)-2-Cyclopentyl-N-((1-isopropylpyrrolidin-2-yl)methyl)-9-methyl-1-oxo-2,9-dihydro-1H-pyrido[3,4-b]indole-4-carboxamide] | – | – | ago-PAMs | significantly increased insulin secretion | ~60 min | 30 min | no effect on locomotion or sedative effects | ≤ 50% | – | – | – | – |
| CCN1CCC[C@H]1CNC(=O)c1cn(C2CCCC2)c(=O)c2c1c1ccccc1n2C [(S)-8] | no effect | – | – | – | – | – | – | – | no calcium response | ~1.5 fold | 69 mL/min/kg | 92 mL/min/kg |
